# From ChEMBL document CHEMBL1201862, “PubChem BioAssay data set” (2004)
#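 Exposure lasted 48 hours, with cells grown in 96-well plates and compounds tested at five concentrations. GI50: concentration for 50% inhibition of growth.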 Calls of active or inactive are those of the source. Rule as the data show it: active = GI50 up to about 1.1 µM and inactive = higher.
# Columns and labels:
# Assay in all cases: growth of human tumour cells (NCI), 48 h
# SF-268 = system: SF-268
# OVCAR-5 = system: OVCAR-5
# SR = system: SR
# UO-31 = system: UO-31
# UACC-257 = system: UACC-257
# EKVX = system: EKVX
# SNB-19 = system: SNB-19
# TK-10 = system: TK-10
# NCI-H226 = system: NCI-H226
# NCI-H522 = system: NCI-H522
# CCRF-CEM = system: CCRF-CEM
# IGROV-1 = system: IGROV-1
# HCT-15 = system: HCT-15
# KM12 = system: KM12
# RXF 393 = system: RXF 393
# SK-MEL-2 = system: SK-MEL-2
SMILES,GI50 (SF-268),GI50 (OVCAR-5),GI50 (SR),GI50 (UO-31),GI50 (UACC-257),GI50 (EKVX),GI50 (SNB-19),GI50 (TK-10),GI50 (NCI-H226),GI50 (NCI-H522),GI50 (CCRF-CEM),GI50 (IGROV-1),GI50 (HCT-15) [µM],GI50 (KM12),GI50 (RXF 393),GI50 (SK-MEL-2)
O=C(O)c1c[nH]cc1C(=O)O,> 100 µM (inactive),> 100 µM (inactive),> 100 µM (inactive),> 100 µM (inactive),> 100 µM (inactive),> 100 µM (inactive),> 100 µM (inactive),> 100 µM (inactive),> 100 µM (inactive),> 100 µM (inactive),> 100 µM (inactive),> 100 µM (inactive),> 100,> 100 µM (inactive),> 100 µM (inactive),
OCc1ccc2[n+](c1)CCC1c3ccccc3NC21 (configuration not stated),167 µM (inactive),,> 300 µM (inactive),,283 µM (inactive),> 300 µM (inactive),> 300 µM (inactive),> 300 µM (inactive),> 300 µM (inactive),> 300 µM (inactive),> 300 µM (inactive),> 300 µM (inactive),> 300,> 300 µM (inactive),> 300 µM (inactive),> 300 µM (inactive)
Cc1ccc(C(=O)N2CCCCC2)cc1/N=N/N(C)C,> 100 µM (inactive),> 100 µM (inactive),> 100 µM (inactive),> 100 µM (inactive),> 100 µM (inactive),> 100 µM (inactive),> 100 µM (inactive),> 100 µM (inactive),> 100 µM (inactive),> 100 µM (inactive),> 100 µM (inactive),> 100 µM (inactive),> 100,> 100 µM (inactive),,> 100 µM (inactive)
CCOP(=O)(C/C(O)=C1\C(=O)C(CCCCNC(=O)OC(C)(C)C)N(Cc2ccccc2)C1=O)OCC (configuration not stated),> 100 µM (inactive),> 100 µM (inactive),69.2 µM (inactive),> 100 µM (inactive),> 100 µM (inactive),> 100 µM (inactive),,> 100 µM (inactive),> 100 µM (inactive),1.12 µM (inactive),> 100 µM (inactive),> 100 µM (inactive),,> 100 µM (inactive),> 100 µM (inactive),> 100 µM (inactive)
CC1CCC(=O)NCCCCC(=O)N1 (configuration not stated),> 100 µM (inactive),> 100 µM (inactive),> 100 µM (inactive),> 100 µM (inactive),> 100 µM (inactive),> 100 µM (inactive),> 100 µM (inactive),> 100 µM (inactive),> 100 µM (inactive),> 100 µM (inactive),> 100 µM (inactive),> 100 µM (inactive),,> 100 µM (inactive),> 100 µM (inactive),> 100 µM (inactive)
CN1CCCNCCN(CCc2ccccn2)CCCN(C)CC1,> 100 µM (inactive),> 100 µM (inactive),29.1 µM (inactive),> 100 µM (inactive),> 100 µM (inactive),> 91.4 µM (inactive),> 100 µM (inactive),> 100 µM (inactive),> 100 µM (inactive),> 100 µM (inactive),> 41.9 µM (inactive),> 100 µM (inactive),> 43.5,> 67.6 µM (inactive),,> 100 µM (inactive)
COc1cccc(NC(=S)Nn2c(C)nc3ccccc3c2=O)c1,> 100 µM (inactive),> 100 µM (inactive),> 100 µM (inactive),> 100 µM (inactive),> 100 µM (inactive),,,> 100 µM (inactive),80.2 µM (inactive),> 100 µM (inactive),> 100 µM (inactive),> 100 µM (inactive),> 100,> 100 µM (inactive),> 100 µM (inactive),> 100 µM (inactive)
